# “And” between values parts separate entries of the source, which are not always exact repeats. Equal values may be shown once.
# Key:
# TBK1 = biological target: T1, TBK1 (Mus musculus, UniProt Q9WUN2); experiment: TBK1 activity assay in eWAT; type: in vivo, mice; parameters: The adipose tissue was ultrasound-crushed in PBS buffer solution (1:9 w/v) to prepare the tissue homogenate; from tissue; host or cells: epididymal white adipose tissue (eWAT) and brown adipose tissue (BAT) of C57BLKS WT and db/db mice; conditions: for the expression of TBK1 in eWAT of db/db mice: Figure 6c, individual values
# T1 sequence (Q9WUN2 1-729): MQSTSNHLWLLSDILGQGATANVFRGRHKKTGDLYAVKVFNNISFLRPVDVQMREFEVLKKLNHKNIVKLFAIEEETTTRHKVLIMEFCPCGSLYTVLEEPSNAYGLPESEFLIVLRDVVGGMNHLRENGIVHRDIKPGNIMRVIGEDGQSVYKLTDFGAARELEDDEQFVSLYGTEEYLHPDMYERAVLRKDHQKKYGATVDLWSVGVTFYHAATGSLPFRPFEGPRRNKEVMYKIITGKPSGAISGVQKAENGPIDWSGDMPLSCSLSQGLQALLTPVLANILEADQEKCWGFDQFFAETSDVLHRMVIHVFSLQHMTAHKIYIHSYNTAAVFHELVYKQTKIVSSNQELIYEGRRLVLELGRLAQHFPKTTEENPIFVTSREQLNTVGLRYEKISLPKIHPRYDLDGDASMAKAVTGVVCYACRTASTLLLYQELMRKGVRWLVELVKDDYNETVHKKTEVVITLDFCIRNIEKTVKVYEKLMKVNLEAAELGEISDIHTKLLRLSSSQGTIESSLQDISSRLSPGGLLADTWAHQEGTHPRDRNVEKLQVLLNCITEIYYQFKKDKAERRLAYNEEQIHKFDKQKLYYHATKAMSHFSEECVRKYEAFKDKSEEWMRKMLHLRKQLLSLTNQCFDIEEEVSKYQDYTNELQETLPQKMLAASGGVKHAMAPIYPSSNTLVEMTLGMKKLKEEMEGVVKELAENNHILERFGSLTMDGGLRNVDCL
# Procedure: The adipose tissue was ultrasound-crushed in PBS buffer solution (1:9 w/v) to prepare the tissue homogenate. The tissue homogenate was centrifuged at 5000 × g for 10 min, and the supernatant was taken for detection. Briefly, samples or standards were added to the microplates pre-coated with IKKε antibody or TBK1 antibody. Then horseradish peroxidase (HRP) labeled antibody was added and incubated at 37 °C for 60 min. After thorough washing, the 3,3′,5,5′-tetramethylbenzidine (TMB) substrate was used for color development, and the absorbance (OD value) was determined at 450 nm.
# db/db mice = experiment: Indirect calorimetry (CLAMS): VO2, VCO2, RER; type: in vivo; parameters: Figure 3g (VCO2), individual mice 1-6: unit not given here; conditions: for Figure 3g (VCO2), individual mice 1-6 / Figure 3e (VO2), individual mice 1-6: BBR 150mg/kg; for Figure 3e (VO2), individual mice 1-6: in mL/kg/h (unit assumed); for Average RER (VCO2/VO2) / Average VCO2 / Average VO2: 150 mg/kg for 5 weeks, individual mice, 150 mg/kg
# Procedure: At week 5 of treatment, basal metabolic parameters of mice were measured using the Comprehensive Lab Animal Monitoring System (CLAMS, Columbus Instruments, Columbus, OH). […] The number of times the infrared beams were broken along the X- or Y-axis was used to measure the dynamic activity of mice. The respiratory exchange rate (RER) was calculated using classical Lusk theory and equations RER = VCO2/VO2.
# [1] = Berberine content in adipose tissue of db/db mice (HPLC); conditions: BJ 75 and 150 mg/kg, BBR 150 mg/kg, crushing, extracting
# From the text: Response: We thank the Reviewer for this comment. In line with the Reviewer ’s
# each group by crushing, extracting, and HPLC analysis.
# based on the improved bioavailability.
# Figure 1. (a) The positions of the peaks of berberine standards in the HPLC assay.
smiles,measurement,setting,value
"CC(C)Cc1ccc(C(C)C(=O)[O-])cc1.COc1ccc2cc3[n+](cc2c1OC)CCc1cc2c(cc1-3)OCO2.O.O.O.O [BJ, berberine-ibuprofen]",the expression of TBK1 in eWAT of db/db mice,TBK1; db/db+BJ 75mg/kg,0.538 U/g and 0.576 U/g and 0.532 U/g and 0.587 U/g and 0.53 U/g
same,the expression of TBK1 in eWAT of db/db mice,TBK1; db/db+BJ 150mg/kg,0.413 U/g and 0.391 U/g and 0.35 U/g and 0.361 U/g and 0.451 U/g and 0.379 U/g
same,TBK1 kinase activity in eWAT,"TBK1; db/db mice, both doses of BJ (75 and 150 mg/kg)",significantly reduced
"COc1ccc2cc3[n+](cc2c1OC)CCc1cc2c(cc1-3)OCO2 [BBR, Berberine chloride dihydrate]","Figure 3g (VCO2), individual mice 1-6",db/db mice; TIME 09:00:00,2187 and 1798.5 and 1382 and 1550.5 and 1282 and 1729
same,"Figure 3e (VO2), individual mice 1-6",db/db mice; TIME 09:00:00,2463.5 and 1992.5 and 1618.5 and 1830.5 and 1604 and 1996.5
same,"Figure 3g (VCO2), individual mice 1-6",db/db mice; TIME 10:00:00,2025.5 and 1306.5 and 1293 and 1507.5 and 1152.5 and 1351.5
same,"Figure 3e (VO2), individual mice 1-6",db/db mice; TIME 10:00:00,2239.5 and 1396.5 and 1525.5 and 1818.5 and 1443 and 1558.5
same,"Figure 3g (VCO2), individual mice 1-6",db/db mice; TIME 11:00:00,1508.5 and 1801 and 1600.5 and 1450.5 and 1810.5 and 2131.5
same,"Figure 3e (VO2), individual mice 1-6",db/db mice; TIME 11:00:00,1686.5 and 2034 and 1941 and 1727 and 2185.5 and 2486.5
same,"Figure 3g (VCO2), individual mice 1-6",db/db mice; TIME 12:00:00,1560 and 1682.5 and 1287 and 1655.5 and 1234 and 1351
same,"Figure 3e (VO2), individual mice 1-6",db/db mice; TIME 12:00:00,1799.5 and 1905 and 1604.5 and 1986.5 and 1472.5 and 1528
same,"Figure 3g (VCO2), individual mice 1-6",db/db mice; TIME 13:00:00,1425.5 and 1753 and 2069 and 1636 and 1111.5 and 1447.5
same,"Figure 3e (VO2), individual mice 1-6",db/db mice; TIME 13:00:00,1585 and 1943.5 and 2523.5 and 1919 and 1415 and 1703
same,"Figure 3g (VCO2), individual mice 1-6",db/db mice; TIME 14:00:00,1628.5 and 1269.5 and 1997.5 and 1334 and 1382 and 1265.5
same,"Figure 3e (VO2), individual mice 1-6",db/db mice; TIME 14:00:00,1785 and 1394 and 2318.5 and 1559 and 1696.5 and 1512.5
same,"Figure 3g (VCO2), individual mice 1-6",db/db mice; TIME 15:00:00,1579.5 and 1285 and 1642.5 and 1147.5 and 2064.5 and 1675
same,"Figure 3e (VO2), individual mice 1-6",db/db mice; TIME 15:00:00,1826 and 1499.5 and 1948.5 and 1433.5 and 2445.5 and 1943
same,"Figure 3g (VCO2), individual mice 1-6",db/db mice; TIME 16:00:00,1579 and 1741 and 1899.5 and 1326 and 1630.5 and 1658.5
same,"Figure 3e (VO2), individual mice 1-6",db/db mice; TIME 16:00:00,1816.5 and 2044.5 and 2249 and 1622.5 and 1845.5 and 1914
same,"Figure 3g (VCO2), individual mice 1-6",db/db mice; TIME 17:00:00,1290.5 and 1905.5 and 1610 and 1666.5 and 1315 and 1412.5
same,"Figure 3e (VO2), individual mice 1-6",db/db mice; TIME 17:00:00,1507 and 2598 and 1769 and 2019 and 1551.5 and 1596.5
same,"Figure 3g (VCO2), individual mice 1-6",db/db mice; TIME 18:00:00,1292.5 and 1365.5 and 1937 and 1461.5 and 1206 and 1444
same,"Figure 3e (VO2), individual mice 1-6",db/db mice; TIME 18:00:00,1496 and 1510 and 2285 and 1793 and 1482.5 and 1701
same,"Figure 3g (VCO2), individual mice 1-6",db/db mice; TIME 19:00:00,1404 and 1310 and 1770.5 and 1481 and 1876 and 2094
same,"Figure 3e (VO2), individual mice 1-6",db/db mice; TIME 19:00:00,1643.5 and 1465 and 2034 and 1838.5 and 2235 and 2481.5
same,"Figure 3g (VCO2), individual mice 1-6",db/db mice; TIME 20:00:00,1181 and 2034.5 and 1933 and 1597 and 1575 and 1493.5
same,"Figure 3e (VO2), individual mice 1-6",db/db mice; TIME 20:00:00,1393.5 and 2338.5 and 2268.5 and 1885.5 and 1848 and 1679
same,"Figure 3g (VCO2), individual mice 1-6",db/db mice; TIME 21:00:00,1529.5 and 1566 and 1830 and 1676.5 and 1825.5 and 1630.5
same,"Figure 3e (VO2), individual mice 1-6",db/db mice; TIME 21:00:00,1863.5 and 1748.5 and 2189 and 2027 and 2201.5 and 1886
same,"Figure 3g (VCO2), individual mice 1-6",db/db mice; TIME 22:00:00,1627 and 2225 and 1746.5 and 1760.5 and 1520.5 and 2058.5
same,"Figure 3e (VO2), individual mice 1-6",db/db mice; TIME 22:00:00,1913.5 and 2540.5 and 2028.5 and 2082.5 and 1881 and 2440
same,"Figure 3g (VCO2), individual mice 1-6",db/db mice; TIME 23:00:00,1717.5 and 1505 and 2209 and 1848.5 and 1914.5 and 1764
same,"Figure 3e (VO2), individual mice 1-6",db/db mice; TIME 23:00:00,1949 and 1704 and 2610 and 2181 and 2319.5 and 2010
same,"Figure 3g (VCO2), individual mice 1-6",db/db mice; TIME 1900-01-01,2124.5 and 2214 and 2120 and 1937 and 2080.5 and 2184
same,"Figure 3g (VCO2), individual mice 1-6",db/db mice; TIME 1900-01-01 01:00:00,2199 and 2168 and 2133.5 and 2137.5
same,"Figure 3e (VO2), individual mice 1-6",db/db mice; TIME 1900-01-01 01:00:00,2537.5 and 2453.5 and 2566.5 and 2667.5
same,"Figure 3e (VO2), individual mice 1-6",db/db mice; TIME 1900-01-01,2407.5 and 2513.5 and 2566 and 2292.5 and 2527.5 and 2541
same,Average RER (VCO2/VO2),"db/db mice; db/db mice, day (light)",0.8616 and 0.8798 and 0.8875 and 0.8398 and 0.8298 and 0.8335
same,Average VCO2,"db/db mice; db/db mice, day (light)",27.0427 mL/min/kg and 26.0915 mL/min/kg and 26.8287 mL/min/kg and 27.4625 mL/min/kg and 24.4077 mL/min/kg and 25.0565 mL/min/kg
same,Average VO2,"db/db mice; db/db mice, day (light)",31.4158 mL/min/kg and 29.6362 mL/min/kg and 30.277 mL/min/kg and 32.69 mL/min/kg and 29.3548 mL/min/kg and 30.0223 mL/min/kg
same,Average RER (VCO2/VO2),"db/db mice; db/db mice, night (dark)",0.8596 and 0.865 and 0.8782 and 0.8452 and 0.8334 and 0.8299
same,Average VCO2,"db/db mice; db/db mice, night (dark)",30.8835 mL/min/kg and 33.2053 mL/min/kg and 32.3175 mL/min/kg and 33.4173 mL/min/kg and 30.4887 mL/min/kg and 29.875 mL/min/kg
same,Average VO2,"db/db mice; db/db mice, night (dark)",35.933 mL/min/kg and 38.3562 mL/min/kg and 36.82 mL/min/kg and 39.5103 mL/min/kg and 36.573 mL/min/kg and 36.013 mL/min/kg
same,Oxygen consumption (VO2) and carbon dioxide elimination (VCO2) levels,"db/db mice; db/db mice, light-dark cycle, 5 weeks of treatment, vs vehicle",significantly higher than those in the vehicle-treated group
same,BBR in adipose tissue (accumulation),[1],not detected

# — paper PMC9374667 (Communications Biology, 2022)
